Ki data for 36 compounds are collected here from BindingDB's records for doi:10.1016/s0960-894x(02)00585-1 (Corvas International, 2002).

The structures appear in SMILES notation. pKi: −log10 of the molar value.

This assay concerns the target Prothrombin (Homo sapiens, UniProt P00734). Briefly: In vitro inhibitory activity against human Thrombin (FIIa) cleavage of the chromogenic substrate.
`Cc1ccc(NS(=O)(=O)c2ccc3c(c2)CCO3)c(=O)n1CC(=O)NCc1ccc2c[nH]nc2c1` had a pKi of 5.88.

As to `Cc1cc2cn[nH]c2cc1CNC(=O)Cn1c(C)ccc(NS(=O)(=O)Cc2ccccc2)c1=O`, the pKi is 6.57.

Compound `Cc1cnc(NCCc2ccc3c(c2)CCC3)c(=O)n1CC(=O)NCc1ccc2[nH]ccc2c1` had a pKi of 7.52.

In turn, `Cc1cnc(NCCc2ccccn2)c(=O)n1CC(=O)NCc1ccc2[nH]ncc2c1` showed a pKi of 8.51.

Turning to `Cc1cnc(NC[C@H](C)c2ccccc2)c(=O)n1CC(=O)NCc1ccc2[nH]ncc2c1`, the pKi was 8.24.

The compound `Cc1cnc(NC[C@@H](C)c2ccccc2)c(=O)n1CC(=O)NCc1ccc2[nH]cnc2c1` showed a pKi of 8.03.

In the case of `Cc1ccc(NS(=O)(=O)Cc2ccccc2)c(=O)n1CC(=O)NCc1ccc2c(N)noc2n1`, the negative-log Ki (pKi) is 6.69.

In turn, `Cc1cnc(NCC(F)(F)c2ccccc2)c(=O)n1CC(=O)NCc1ccc2[nH]nc(N)c2c1` had a pKi of 8.39.

As for `Cc1cnc(NCC2(c3ccccc3)CCC2)c(=O)n1CC(=O)NCc1ccc2[nH]nc(O)c2c1`, the pKi is 8.00.

On to `Cc1ccc(NS(=O)(=O)Cc2ccccc2)c(=O)n1CC(=O)NCc1ccc2c(N)[nH]nc2c1`, for which the pKi is 6.65.

In turn, `Cc1cnc(NCC2(c3ccc(F)cc3)CC2)c(=O)n1CC(=O)NCc1ccc2[nH]nc(N)c2c1` gave a pKi of 7.82.

As to `Cc1cnc(NCC2(c3ccccn3)CC2)c(=O)n1CC(=O)NCc1ccc2c(N)noc2c1`, the pKi is 7.59.

Take `Cc1cnc(NCC(c2ccccc2)c2ccccc2)c(=O)n1CC(=O)NCc1ccc2c(N)noc2c1`: the pKi is 7.51.

Turning to `Cc1ccc(NS(=O)(=O)c2ccc3c(c2)CCO3)c(=O)n1CC(=O)NCc1ccc2[nH]ncc2c1`, the pKi was 8.41.

On to `Cc1ccc(NS(=O)(=O)c2ccc3c(c2)CCO3)c(=O)n1CC(=O)NCc1ccc2[nH]nc(N)c2c1`, for which the pKi is 7.54.

Take `Cc1ccc(NS(=O)(=O)Cc2ccc(Cl)cc2)c(=O)n1CC(=O)NCc1ccc2[nH]cnc2c1`: the pKi is 8.19.

Consider `COc1ccc(C2(CNc3ncc(C)n(CC(=O)NCc4ccc5[nH]nc(N)c5c4)c3=O)CC2)cc1`, for which the pKi is 8.05.

Compound `Cc1cnc(NCCc2ccccc2)c(=O)n1CC(=O)NCc1ccc2[nH]nc(O)c2c1` showed a pKi of 7.48.

As to `Cc1cnc(NCC(F)(F)c2ccccc2)c(=O)n1CC(=O)NCc1ccc2c(N)noc2c1`, the pKi is 8.60.

The compound `CCc1cnc(NCCc2ccccc2)c(=O)n1CC(=O)NCc1ccc2[nH]ccc2c1` showed a pKi of 7.62.

`Cc1cnc(NCCc2ccccc2)c(=O)n1CC(=O)NCc1ccc2c(N)noc2c1` showed a pKi of 7.09.

Compound `Cc1cnc(NCC2(c3ccc(F)cc3)CC2)c(=O)n1CC(=O)NCc1ccc2c(N)noc2c1` showed a pKi of 7.80.

Compound `Cc1cnc(NCCc2ccccc2)c(=O)n1CC(=O)NCc1ccc2[nH]ncc2c1` had a pKi of 7.74.

`Cc1cnc(NCCc2ccc3c(c2)CCC3)c(=O)n1CC(=O)NCc1ccc2c(ccn2N)c1` had a pKi of 4.91.

Take `Cc1nc2cc(CNC(=O)Cn3c(C)cnc(NCCc4ccccc4)c3=O)ccc2[nH]1`: the pKi is less than 5.40.

Consider `Cc1ccc(NS(=O)(=O)Cc2ccccc2)c(=O)n1CC(=O)NCc1ccc2c(N)[nH]nc2n1`, for which the pKi was 5.80.

With `COc1ccc(CCNc2ncc(C)n(CC(=O)NCc3ccc4[nH]cnc4c3)c2=O)cc1`, the pKi was 8.30.

Compound `Cc1ccc(NS(=O)(=O)Cc2ccccc2)c(=O)n1CC(=O)NCc1ccc2[nH]nc(N)c2c1` showed a pKi of 7.14.

In the case of `Cc1n[nH]c2ccc(CNC(=O)Cn3c(C)cnc(NCCc4ccccc4)c3=O)cc12`, the pKi was 6.35.

On to `Cc1cnc(NCCc2ccc3c(c2)CCO3)c(=O)n1CC(=O)NCc1ccc2[nH]ncc2c1`, for which the pKi is 8.54.

The compound `Cc1cnc(NCCc2ccc(F)cc2)c(=O)n1CC(=O)NCc1ccc2c(N)noc2c1` had a pKi of 7.74.

Take `Cc1cnc(NCCc2ccccc2)c(=O)n1CC(=O)NCc1ccc2nc(N)sc2c1`: the pKi is less than 5.40.

As to `Cc1ccc(NS(=O)(=O)Cc2ccccc2)c(=O)n1CC(=O)NCc1ccc2c(N)noc2c1`, the pKi was 7.13.

`COc1cccc(CCNc2ncc(C)n(CC(=O)NCc3ccc4[nH]ncc4c3)c2=O)c1`: the pKi is 8.00.

Consider `Cc1cnc(NCCc2ccccc2)c(=O)n1CC(=O)NCc1ccc2[nH]nnc2c1`, for which the pKi was 6.65.

As to `Cc1nc(N)ccc1CNC(=O)Cn1c(C)ccc(NS(=O)(=O)Cc2ccccc2)c1=O` [L-374087], the pKi is 9.15.

As usually defined, the pKi is the negative decadic logarithm of the Ki, by convention in mol/L.
